Measurements reported in publication PMC9101373, “Design of DNA Intercalators Based on 4-Carboranyl-1,8-Naphthalimides: Investigation of Their DNA-Binding Ability and Anticancer Activity” (International Journal of Molecular Sciences, 2022).
Several values for one entry are separate records, joined by “and”; a condition that tells them apart may be missing. Equal entries are not always repeated.

How the values were obtained:
HepG2 cells [1] = assay: In vitro cytotoxic activity, MTT assay; format: cell-based, human; settings: 24 h treatment, read-out: IC50, compound concentration required to inhibit cell growth by 50%
Procedure: The obtained 1,8-naphthalimide–carborane conjugates were investigated for their in vitro antitumor activity by examining their cytotoxic effects using the MTT tetrazolium dye assay against the human cancer cell line HepG2 established from hepatocellular carcinoma. IC50 refers to the drug concentration (µM) required to inhibit cell growth by 50%.
The cytotoxic properties of the synthesized compounds were evaluated using the human hepatocellular carcinoma cell line HepG2 established from hepatocellular carcinoma. The HepG2 cell line was purchased from ECACC (Salisbury, UK). Cells were grown in EMEM medium (Corning®) supplemented with 10% heat-inactivated fetal bovine serum (FBS) (Corning®) and antibiotics (Corning®), at 37 °C in a 5% CO2 atmosphere. Upon reaching 80–90% confluency, cells were detached with the trypsin (Corning®) and transferred into 96-well microplates at a density of 12 × 10^3. After overnight incubation at 37 °C in a humidified atmosphere containing 5% CO2, the cells were treated for the next 24 h with compounds. The stock solution of each compound was prepared in DMSO at 10 mM. The cytotoxicity was evaluated by the MTT assay. […] Subsequently, the medium was aspirated and replaced with 3-(4,5-dimethylthiazol-2-yl)-2,5-diphenyltetrazolium bromide (MTT) dye solution (50 µL, 0.5 mg/mL). After 3 h incubation, the resulting MTT formazan crystals were dissolved in DMSO (100 µL). To ensure the complete dissolution of formazan, the plates were shaken on an orbital microplate shaker at 1000 rpm for 15 min (Thermoshaker NeoLab 7–0055, Bionovo, Legnica, Poland). The optical density of each well was then measured on a VICTOR Nivo multimode plate reader at a wavelength of 570 nm. Each experiment consisted of 6 replications of each concentration, and each experiment was repeated three times independently. The results were calculated as a percentage of control group viability. The IC50 values were determined using a non-linear regression from the plot of % viability against log dose of compounds by using GraphPad Prism 6.0 software (GraphPad, San Diego, CA, USA).

calf thymus DNA (ct-DNA) = assay: Melting temperature (Tm) measurements of ct-DNA, thermal denaturation; format: binding; settings: r = [compound]/[ct-DNA] = 0.3; pH 7.0, 20 mM cacodylate buffer; Tm of ct-DNA alone 74 °C
Procedure: The melting temperature (Tm) of DNA is defined as the temperature at which 50% of the DNA is in form of single strands forming randomly coiled structures. DNA melting is measured by the absorbance of UV light (260 nm) by the DNA solution, where the amount of UV light absorbed is proportional to the fraction of non-bonded base pairs. The majority of DNA-binding small molecules known thus far stabilize duplex DNA against heat denaturation. A high, drug-induced increase in the Tm of DNA is generally viewed as an excellent criterion to select DNA ligands and is a common feature of several anticancer drugs such as intercalators (a significant increase in Tm = 3–8 °C is observed for strong intercalation) and alkylators. The reverse situation (destabilization of DNA to facilitate its denaturation) may be an attractive option to identify therapeutic agents acting on the DNA structure.
Our study conducted Tm measurement to estimate the impact of 1,8-naphthalimides bearing the carborane cluster on DNA stabilization (Table 1, Figures S249–S253, ESI).
The measurements were performed by adding aliquots of DMSO stock solution of the tested compounds to the buffer solution (pH 7.0, 20 mM, cacodylate buffer, DMSO content of the final solution = 0.24–0.36%). The Tm curves were collected at r = 0.3 (r = [compound]/[ct-DNA]) to assure the dominant binding mode. Thermal melting curves were determined by following the absorption change at 260 nm as a function of temperature by using a GBC Cintra10 UV–vis spectrometer (Dandenong, Australia) equipped with a GBC Thermocell Peltier Power Supply (Dandenong, Australia) using a 1 cm path length cell. The absorbance of the samples was monitored at 260 nm from 30 to 90 °C (95 °C for compounds 54–61) with a heating rate of 1 °C/min. Tm values are the midpoints or the transition curves determined from the maximum of the first derivative. The ΔTm values were calculated by subtracting the Tm of the free nucleic acid from the Tm of the sample. Every Tm value reported in this study was average at least three measurements. The error in Tm was 0.5 °C.

HepG2 cells [2] = assay: Analysis of 8-oxo-dG in cellular DNA by HPLC-UV-ED; format: cell-based, human; settings: HepG2, 24 h; for [8-oxo-dG ± SD] × 10^6, 8-oxo-dG level in cellular DNA: concentration corresponding to total IC50, control 2.88 ± 0.17
Procedure: We also estimated 8-oxo-dG levels in DNA since 2-deoxyguanosine is most susceptible to oxidation among nucleosides and might serve as an oxidative DNA damage marker within the cells. […] Both compounds generate much higher oxidative disturbance in DNA than mitonafide, resulting in approximately 4- and 6-fold more 8-oxo-dG residues, respectively.
HepG2 cells (1 × 10^6) were seeded onto flasks (25 cm^2) and cultured for 16 h in the EMEM medium (Corning®) supplemented with 10% FBS (Corning®) and antibiotics (Sigma).Subsequently, the cells were treated for 24 h with the tested compounds at a concentration corresponding to their total IC50 values. Next, the cells were trypsinized, rinsed twice with PBS, and pelleted by centrifugation (200× g, 3 min). Total DNA was isolated from the treated cells and untreated control cells using a Genomic mini DNA isolation kit (A&A Biotechnology, Gdynia, Poland) according to the manufacturer′s protocol. The quality of the total DNA was assessed spectrophotometrically.
DNA (1 μg) was dissolved in sodium acetate buffer (10 μL, 40 mM, pH 5.3) containing ZnCl2 (0.1 mM) and digested with nuclease P1 (3 μg). Samples were incubated for 3 h at 37 °C. Subsequently, Tris–HCl (2 μL, 1 M, pH 8.0), alkaline phosphatase (1 U) were added and incubated for 2 h at 37 °C. All DNA hydrolysates were ultrafiltered using cut-off 10,000 Da filter units.
8-Oxo-dG and dG in hydrolysates were determined using HPLC-UV followed by electrochemical detection and ED (Coulochem III Electrochemical Detector, ESA, Inc., Chelmsford, MA, USA). DNA hydrolysates were chromatographed isocratically using ammonium acetate (50 mM pH 5.3)/methanol (93:7, v/v). Detection of dG was performed at 254 nm. Detection of 8-oxo-dG was performed by the electrochemical detector: guard cell + 400 mV, detector 1: +130 mV (as a screening electrode), detector 2: + 350 mV (as a measuring electrode set to sensitivity of 500 nA/V). All results are expressed as the mean ± SD.
To determine 8-oxo-dG levels, guanosine amount was necessary. The total number of 8-oxo-dG residues in the genome was calculated using the unique formula [54].

Substance	IC50 (HepG2 cells [1]) [µM]	ΔTm ct-DNA (calf thymus DNA (ct-DNA)) [°C]	[8-oxo-dG ± SD] × 10^6, 8-oxo-dG level in cellular DNA (HepG2 cells [2]) [per 10^6 dG]	fold increase in number of 8-oxo-dG residues per 10^6 dG as compared to control (HepG2 cells [2])	fold more 8-oxo-dG residues than mitonafide (HepG2 cells [2])
N-[2-(Pyrrolidin-1-yl)ethyl]-4-[(2-(2-(1,7-dicarba-closo-dodecaborane-1-yl)-ethylamino)ethyl)amino]-1,8-naphthalimide [Compound 57]	3.12 ± 0.04	11.00	57.54 ± 0.73		
N-[2-(Dimethylamino)ethyl]-4-[(6-(2-(1,2-dicarba-closo-dodecaborane-1-yl)-ethylamino)hexyl)amino]-1,8-naphthalimide [Compound 58]	3.87 ± 1.03	11.00	96.58 ± 0.56		
N-[2-N-Pyrrolidinyl)ethyl]-4-[(6-(2-(1,7-dicarba-closo-dodecaborane-1-yl)-ethylamino)hexyl)amino]-1,8-naphthalimide [Compound 61]	4.79 ± 0.06	12.33	123.92 ± 2.59	> 43 fold	4 fold and ~6 fold
N-[2-(Dimethylamino)ethyl]-4-[(6-(2-(1,7-dicarba-closo-dodecaborane-1-yl)-ethylamino)hexyl)amino]-1,8-naphthalimide [Compound 59]	5.35 ± 1.36	8.33	81.64 ± 0.67		
N-[2-(Dimethylamino)ethyl]-4-[(2-(2-(1,2-dicarba-closo-dodecaborane-1-yl)-ethylamino)ethyl)amino]-1,8-naphthalimide [Compound 54]	5.49 ± 0.38	7.67	43.17 ± 0.75		
N-[2-(Pyrrolidin-1-yl)ethyl]-4-[(2-(2-(1,2-dicarba-closo-dodecaborane-1-yl)-ethylamino)ethyl)amino]-1,8-naphthalimide [Compound 56]	12.1 ± 1.03	7.67	52.31 ± 0.51		
N-[2-N-Pyrrolidinyl)ethyl]-4-[(6-(2-(1,2-dicarba-closo-dodecaborane-1-yl)-ethylamino)hexyl)amino]-1,8-naphthalimide [Compound 60]	30.9 ± 2.66	7.67	164.35 ± 6.39	over 57 fold	approximately 4 fold
N-[2-(Dimethylamino)ethyl]-4-[(2-(2-(1,7-dicarba-closo-dodecaborane-1-yl)-ethylamino)ethyl)amino]-1,8-naphthalimide [Compound 55]	3.43 ± 0.28	9.67	74.85 ± 1.38		
